Measurements published in a melting point compilation (Tetko et al.; mined from patent text by program, amines drawn as free bases though some values may be those of a salt).

SMILES	melting point
N#Cc1cc(C2=Nc3ccc(-n4cccc4)cc3NC(=O)C2)ccn1	243 to 244 °C
CCCCCCCCCCCCCCCC(=O)c1c(Br)cc(OC)c(OC)c1C(=O)NC[C@@H]1CCCN1CC	46 to 48 °C
NC(=O)C(NC(=O)OCc1ccccc1)c1ccc(CC2CC2)[nH]1 (centres undefined)	184 to 185 °C
CC(=O)N[C@@H](CSC(=O)C(C)C)C(=O)NCCSC(=O)C(C)(C)C	101 to 102 °C
O=C1NCN(c2ccccc2)C12CCN(CC1CCc3ccc(F)cc3C1O)CC2 (centres undefined)	210 to 212 °C
COC(=O)c1ccc(Sc2ccc(OCCCCl)cc2)cc1	65 to 67 °C
CCNc1ccc(C2(C)C(=O)c3c(Cl)cc(Cl)cc3N(Cc3ccccc3)C2=O)cc1 (centres undefined)	148 to 149 °C
CC1Cc2c(c(Cl)cc(F)c2N2C(=O)c3ccccc3C2=O)O1 (centres undefined)	158 to 160 °C
CCN1C(=O)C(C)(C)C(=O)N(C)c2cc(CN(CCn3cc(C)c4sccc4c3=O)Cc3cnccc3C)ccc21	174 to 175 °C
O=[N+]([O-])c1ccc(C2SCCS2)cc1	80 to 82 °C
O=[N+]([O-])c1ccc2c(c1)S(=O)(=O)NCN2CCF	165 to 166 °C
CCc1nn2c(N3CCN(C)CC3)ccnc2c1S(=O)(=O)c1ccccc1	206 to 207 °C
CC(=O)Nc1sc([N+](=O)[O-])cc1C(=O)O	238 to 240 °C
Fc1ccc(C(c2ccc(F)cc2)c2cc(Cl)cc(Cl)c2S)cc1	95 °C
COc1cc(C(O)CS(C)(=O)=O)cc(OC)c1N(C)C(C)=O (centres undefined)	175 to 177 °C
CCC1=C(O)C(=O)CC1	39 to 41 °C
CC(=O)Nc1cccc(/C=C/C(=O)N2CC(CCl)c3c2cc(NC(=O)OCC2c4ccccc4-c4ccccc42)c2ccccc32)c1 (centres undefined)	208 to 209 °C
N#CC1=C(CN2C(=O)c3ccccc3C2=O)Nc2n[nH]cc2C1c1ccccc1Cl (centres undefined)	> 250 °C
Cc1cccc(Cl)c1C1N=C(N(C)C)Cc2ccccc21 (centres undefined)	153 to 154 °C
CCCNC(=O)CCn1ccc(=O)c(O)c1	113 to 114 °C
O=C(O)c1ccc2nc3c(c(=O)n2c1)CCC3=Cc1cccc(O)c1	> 320 °C
CCN(CC)C(=O)n1cnc(S(=O)(=O)CC2CCCCO2)n1 (centres undefined)	122 °C
N#Cc1c(Nc2ccccc2)nn(Cc2ccccc2)c1N	139 to 140 °C
CCOC(=O)C1=NNC(C)=C(C(=O)OC)C1c1cccc([N+](=O)[O-])c1 (centres undefined)	174 °C
N#Cc1ccc2c(c1)N(C1CC1)CNS2(=O)=O	178 to 180 °C

SMILES	melting point
CC(C)[Si](C#Cc1ccc2cc3c(cc2c1)Cc1cc2cc(C#C[Si](C(C)C)(C(C)C)C(C)C)ccc2cc1C3)(C(C)C)C(C)C	73 to 75 °C
CCCCCCCCCCCCCCCCSCC(C)(CO)C(=O)OC (centres undefined)	25 to 27 °C
CCN(CC)CC(O)CSCC(=O)O (centres undefined)	104 °C
CC(=O)NC(C)(C)c1ccc(CO)cc1	126 to 129 °C
CCCCNC(=O)CCCCCCCSc1nc(-c2ccccc2)c(-c2ccccc2)[nH]1	136 to 137 °C
O=C(Nc1ccc(Cl)cc1)c1ccc2cccnc2c1O	207 to 209 °C
CCC(=O)Oc1ccc(C(=O)Nc2ccc3cc(CN4CCCC4)cnc3c2C)cc1	146 to 147 °C
Nc1ccc2c(c1)OCC(=S)N2	205 to 211 °C
Cc1nc(-c2ccccc2)nc(-c2ccncc2)c1C	152 to 153 °C
Cc1ccc(-c2ccc(CBr)cc2)cc1	100 to 102 °C
O=C(O)CCCn1sc2ccc([N+](=O)[O-])cc2c1=O	183 to 186 °C
Cc1nc2nc[nH]c2c(=O)[nH]1	> 300 °C
CC(C)[C@H]1C(=O)OCN1C(=O)OC(C)(C)C	43 to 45 °C
CNc1ccc(C(=O)N(CCN2CCC(C(=O)c3ccc(F)cc3)CC2)c2cccnc2)cc1	90 to 96 °C
CNn1cc(C(=O)O)c(=O)c2cc(F)c(N3CCN(C)CC3)cc21	299 to 301 °C
COC(=O)c1cc(Cl)c(C)c(Br)c1	53 to 55 °C
O=C(O)c1ccccc1Nc1ccc([N+](=O)[O-])cc1[N+](=O)[O-]	266 to 270 °C
COc1cc(OC)c(C)c(C(=O)NCC23CC4CC(CC(Cl)(C4)C2)C3)c1	173 to 175 °C
COc1cccc(/C(=C/C=C/C(=O)Oc2ccc([N+](=O)[O-])cc2)c2ccccc2)c1	101 to 103 °C
Cc1cc(-c2c(-c3ccc(S(C)(=O)=O)cc3)cnn(-c3ccc(F)c(F)c3)c2=O)ccc1F	166 to 168 °C
COC(=O)c1nc(Br)cc(N)c1Cl	194 to 195 °C
COc1cc(NC(=O)c2cc3cc(F)ccc3n2Cc2cccc(F)c2)cnc1N1CCCC1	172 to 174 °C
O=S(=O)(c1ccc(I)cc1)N1CCC(Br)(Br)C(c2ccc(Cl)c(C(F)(F)F)c2)=N1	148 to 150 °C
Cc1ccc(NC(=O)c2cc(Cl)cc(C)n2)nc1	159 °C
CCOC(=O)c1cc2c(OC[C@@H](O)CN3CCC(c4ccc5ccccc5c4)CC3)cccc2[nH]1	115 to 117 °C

SMILES	melting point
CCn1cc(C(=O)OCC(=O)OCC2CCCCC2)c(=O)c2ccc(C)nc21	130 to 132 °C
CC(C)COc1ccc2c(c1)c(=O)n(CCC(=O)O)c(=O)n2Cc1c[nH]c2ccccc12	199 to 201 °C
CC(=O)Oc1c(C(C)(C)C)cc(N(C)c2ccn(-c3ccccc3)n2)cc1C(C)(C)C	102 to 103 °C
O=C(CCNC(=O)c1ccccc1C(=O)O)NO	58 to 65 °C
CSC(C(=O)c1cc(-c2ccccc2)on1)N1CCOCC1 (centres undefined)	124 to 126 °C
CCCn1cc(C(=O)NCc2ccc(Cl)cc2)c(=O)c2cc(CO)sc21	174 to 175 °C
CCCCCC1=CN(N)C2=NC(O)N(CCCNC(C)=O)C2=C1 (centres undefined)	189 to 191 °C
NCc1ccccc1N	58 to 61 °C
CC#CC(C)(C)NC(=O)C(Br)CC (centres undefined)	79 to 81 °C
Cc1cn(-c2cc(Br)c3c(c2)CCC(=O)N3)c(C)n1	242 °C
O=C(O)c1ccc(OCCCCc2cc(-c3ccc(C(F)(F)F)cc3)no2)cc1	170 to 171 °C
CC(C)(C)c1cc(OCc2ccc(C(=O)O)cc2)cc(C(C)(C)C)c1	212 to 215 °C
CC1CCN(S(=O)(=O)c2cc(C#N)ccc2Oc2cc(Cl)ccc2Cl)CC1	127 to 130 °C
CNS(=O)(=O)c1cc(-c2ccc(C(F)(F)F)n(C)c2=O)c(F)cc1Cl	150 to 151 °C
CCN1C(=O)C(C)(C)C(=O)N(C)c2cc(CN(CCn3ccc4oc(C)cc4c3=O)Cc3ccccc3C=O)ccc21	157 to 158 °C
Clc1ccc(C2Cc3cnc(Nc4ccc(CCN5CCCCC5)cc4)nc3-c3ccccc32)cc1Cl (centres undefined)	157 to 158 °C
CNC(=C[N+](=O)[O-])NCc1ccc(Cl)nc1	181 to 183 °C
CCCc1nc2c(ccc3cc(C(=O)N4CCC(Cc5ccccc5)CC4)[nH]c32)o1	195 to 196 °C
O=C1N(CC2COCCO2)c2ccccc2C12COc1cc3c(cc12)OCCO3 (centres undefined)	198 to 199 °C
CN(Cc1c2ccccc2cc2ccccc12)C(=O)Nc1ccccc1CCc1cc(C(C)(C)C)c(O)c(C(C)(C)C)c1	205 to 206 °C
CC(C)(C)SCc1c(-c2ccc(S(C)(=O)=O)cc2)cnn(-c2ccc(F)cc2)c1=O	50 to 70 °C
O=C(O)c1ccc(S(=O)(=O)n2c(=O)[nH]c3cc(Cl)ccc3c2=O)cc1	> 200 °C
CCc1ccc(C(=O)c2c(N)sc3c2CCN(C(=O)OCc2ccccc2)C3)cc1	121 to 123 °C
CCS(=O)(=O)c1ccc2cc(C(C)=O)ccc2c1	133 °C
Clc1ncc(Br)c(NC2CCCC2)n1	95 to 96 °C

SMILES	melting point
CN1CC(CCN2CCOCC2)c2nc3ccccc3n2C1=O (centres undefined)	111 to 112 °C
Cc1cc(C(=O)NS(=O)(=O)c2ccccc2Cl)nc(Cl)n1	170 to 171 °C
CC(C)(CCCCCCCCC(C)(C)NC(=O)Cc1cc(C(C)(C)C)c(O)c(C(C)(C)C)c1)NC(=O)Cc1cc(C(C)(C)C)c(O)c(C(C)(C)C)c1	168 °C
CCCCc1ccc(-n2c(-c3ccc(SC)cc3)nc(SC)c(C#N)c2=O)cc1	138 to 141 °C
CCCCCc1c(C(C)C)nc(C(C)C)c(CO)c1-c1ccc(OC)cc1	47 to 49 °C
O=C(O)c1cccc2c1CCc1cc(F)ccc1S2	200 to 202 °C
CCCCCCCCSc1cc(SCCCCCCCC)c2ccc3c(SCCCCCCCC)cc(SCCCCCCCC)c4ccc1c2c43	110 °C
CCOC(=O)c1ccc(N2CCC(N)CC2)nc1	148 to 150 °C
COc1ccc(S(=O)(=O)Nc2cccc3c2Nc2ccccc2S3)cc1	158 to 160 °C
Oc1ccc(Nc2nccc(-c3cccnc3)n2)cc1	223 to 225 °C
O=S(=O)(c1ccc(Cl)cc1)C1(c2nnn(Cc3ccccc3)n2)CCCCC1	133 to 134 °C
CC(C)C(NC(=O)CCc1ccccn1)C(=O)NC(Cc1ccccc1)C(O)C(Cc1ccccc1)NC(=O)C(NC(=O)CCc1ccccn1)C(C)C (centres undefined)	216 to 218 °C
O=CN1C(=O)c2ccccc2OC1C(Cl)(Cl)Cl (centres undefined)	114 °C
CCCc1ccc(S(=O)(=O)Nc2ccc3ncccc3c2)cc1	180 to 181 °C
COc1cccc(CC(=O)O)c1OCCCc1cn(-c2ccc(Br)cn2)nc1C(C)C	152 to 153 °C
Cc1cccc2c(C(=O)O)c(O)c(-c3ccc(-c4ccccc4)cc3)nc12	178 to 180 °C
COCOCC1(C)Cc2c(C)c(N3CCN(c4ccc(OC)cc4)CC3)c(C)c(C)c2O1 (centres undefined)	111 to 114 °C
CC(C)(C)c1cc2c(c(C(C)(C)C)c1)O[Si](C)(C)Oc1c-2cc(C(C)(C)C)cc1C(C)(C)C	170 to 176 °C
CCCOc1ccccc1-c1nc2cc3ncn(Cc4ccc(Cl)cc4)c3cc2c(=O)[nH]1	136 to 137 °C
CC(C)(C)OC(=O)NCc1ccc(CNC(=O)N2CCN(C(=O)OCc3ccccc3)CC2)cc1	128 °C
Cc1ccc(CC(C)NCC(O)c2ccccc2)cc1 (centres undefined)	74 to 94 °C
NS(=O)(=O)c1ccc(NCC(=O)Nc2ccccc2)cc1	257 to 258 °C
COc1ccc(NC(=O)c2c(Cl)cccc2Cl)cc1OC1CCCC1	184 to 185 °C
CC(C)[C@H](CCC(=O)OCc1ccccc1)NC(=O)OC(C)(C)C	94 to 96 °C
